How the values were obtained:
[1] = Microsome metabolic stability, mice; format: in vitro ADME; conditions: mouse; mice liver microsomes, 1 μM compound, 0.5 mg/mL; read-out: MMS CLint(liver)-M
Experimental: (§1) To evaluate the Phase I metabolic stability of the test compound in animal and human liver microsomes.
(§2) 10 μL of the test compound working solution and 80 μL of microsome working solution (0.625 mg/mL liver microsome protein) were added to the reaction plate and NCF60 plate, respectively, while only microsome working solution was added to the Blank60 plate, then, the above incubation plates were placed in a 37° C. water bath for pre-incubation for approximately 10 minutes.
(§3) After the pre-incubation, 10 μL of a NADPH regeneration system working solution was added into each sample well of all the plates except the NCF60 plate and TO plate to start the reaction, and 10 μL of potassium phosphate buffer was added to each well of the NCF60 plate. The final reaction concentrations of the test sample or control sample were 1 μM, the concentration of the liver microsomes was 0.5 mg/mL.
(§4) After incubation for an appropriate time, 300 μL of a stop solution (acetonitrile solution containing 200 ng/mL tolbutamide) was added to each sample well to stop the reaction; stop solution and then NADPH regeneration system working solution were added to the TO plate in sequence.
(§5) All the sample plates were shaken and centrifuged at 3220 rpm for 20 min, and then 100 μL of supernatant was taken from each well and diluted with 300 μL of pure water for LC-MS/MS analysis. […]

[2] = Microsome metabolic stability, human; format: in vitro ADME; conditions: human liver microsomes, 1 μM compound, 0.5 mg/mL; read-out: MMS CLint(liver)-H
Experimental: as §1, §2, §3, §4, §5

CYP3A4 = CYP3A4 (Homo sapiens (Human), UniProt P08684); test: CYP inhibition in human liver microsomes, CYP3A4; format: in vitro ADME; conditions: 0.05-50 μM
Experimental: (§6) Mixed probe substrate of CYP isozymes were used to evaluate the inhibition of compounds of the present disclosure to human liver microsomal cytochrome P450 isoenzymes (CYP1A2, CYP2C9, CYP2C19, CYP2D6, and CYP3A4).
(§7) The testing compound was dissolved in DMSO to prepare a 10 mM stock solution. 178 μL of the mixture solution of human liver microsomes and substrate was added into non-inhibitor control (NIC) wells and test compound sample wells of the reaction plate, and the reaction plate was placed on ice. 2 μL of blank solvent and test compound working solution was taken from the dilution plate, respectively, and then added into the reaction plate (final concentration: 0.05-50 μM). The reaction plate was preheated in a 37±0.2° C. water bath for 10 minutes. 20 μL of cofactor solution was added into the reaction plate using a liquid handling workstation to initiate the reaction.
(§8) After 10 minutes, 400 μL of stop solution was added to the reaction plate to stop the reaction, and the reaction plate was placed on ice for 5 minutes. […] The peak areas of the substrate and product were detected by liquid chromatography tandem mass spectrometry (LC/MS/MS). […]
(§9) A nonlinear regression analysis of mean percentage activity of the test compound against concentration was performed using SigmaPlot (V.11). The IC50 value was calculated using a three- or four-parameter inverse logarithmic equation. […]

[3] = Microsome metabolic stability, Beagle; format: in vitro ADME; conditions: dog; Beagle liver microsomes, 1 μM compound, 0.5 mg/mL; read-out: MMS CLint(liver)-D
Experimental: as §1, §2, §3, §4, §5

CYP2C19 = CYP2C19 (Homo sapiens (Human), UniProt P33261); test: CYP inhibition in human liver microsomes, CYP2C19; format: in vitro ADME; conditions: 0.05-50 μM
Experimental: as §6, §7, §8, §9

[4] = molecular target: human V804M mutant RET kinase (Homo sapiens (Human), UniProt P07949, V804M); test: 33P-labeled kinase activity assay, V804M mutant RET; format: biochemical; conditions: 33P-ATP at Km concentration
Experimental: (§10) The inhibitory activity of the test compounds against human wild-type and V804M mutant RET kinase was evaluated by measuring IC50 values in a ^33P-labeled kinase activity assay (Reaction Biology Corp).
(§11) Buffer conditions: 20 mM hydroxyethyl-piperazine-ethanesulfonic acid (Hepes) (pH 7.5), 10 mM MgCl2, 1 mM ethylene glycol-bis(aminoethyl ether)-tetraacetic acid (EGTA), 0.02% polyoxyethylene lauryl ether (Brij35), 0.02 mg/mL BSA, 0.1 mM Na3VO4, 2 mM dithiothreitol (DTT), and 1% DMSO.
(§12) Compound handling: testing compounds were dissolved in 100% DMSO to specific concentration. Serial dilution can be conducted using Integra Viaflo Assist in DMSO.
(§13) Procedures: the substrate was dissolved in freshly prepared Reaction Buffer, the test kinase was added into the substrate solution and gently mixed. Compounds in DMSO were added into the above kinase reaction mixture by Acoustic technology (Echo550) and incubate for 20 minutes at room temperature. The concentrations of the compounds in the reaction solutions were 3 μM, 1 μM, 0.333 μM, 0.111 μM, 0.0370 μM, 0.0123 μM, 4.12 nM, 1.37 nM, 0.457 nM and 0.152 nM. […] The reaction was conducted for 120 minutes at room temperature, and radioactivity was detected by filter-binding method. Kinase activity data can be expressed as the percent remaining kinase activity in test samples compared to vehicle (DMSO only) reactions. […]

CYP2C9 = CYP2C9 (Homo sapiens (Human), UniProt P11712); test: CYP inhibition in human liver microsomes, CYP2C9; format: in vitro ADME; conditions: 0.05-50 μM
Experimental: as §6, §7, §8, §9

[5] = molecular target: human wild-type RET kinase (Homo sapiens (Human), UniProt P07949); test: 33P-labeled kinase activity assay, wild-type RET; format: biochemical; conditions: 33P-ATP at Km concentration; read-out: RET(WT) IC50
Experimental: as §10, §11, §12, §13

[6] = Microsome metabolic stability, cynomolgus monkey; format: in vitro ADME; conditions: cynomolgus monkey liver microsomes, 1 μM compound, 0.5 mg/mL; read-out: MMS CLint(liver)-C
Experimental: as §1, §2, §3, §4, §5

[7] = Pharmacokinetics study of mice; format: in vivo; conditions: mouse, male CD-1 mice, plasma
Excerpt: The purpose of this experiment was to study the pharmacokinetics of the test compound in the plasma of male CD-1 mice after intravenous injection and oral administration.
The animals were randomly divided into two groups with 2 males in each group. The compounds were formulated into prescribed preparations. Intravenous formulations were formulated with 5% DMS 0/95% (6% hydroxypropyl-β-cyclodextrin) to give a clear solution, and oral preparations were formulated with 0.1% Tween80/0.5% HPMC aqueous solution to give a homogeneous suspension.
Whole blood samples were collected from the saphenous vein of the animals 5 minutes, 15 minutes, 30 minutes, 1 hour, 2 hours, 4 hours, 8 hours, 12 hours, and 24 hours after administration. The whole blood sample was added to the centrifuge tube containing anticoagulant, and centrifuged at 3200 g for 10 minutes at 4° C. The supernatant of plasma was taken, frozen quickly on dry ice, and then stored in a −70±10° C. refrigerator until LC-MS/MS analysis.
WinNonlin™ Version 6.3.0 (Pharsight, Mountain View, Calif.) pharmacokinetic software was used to process the plasma drug concentration data of the compounds with a non-compartmental model. The peak concentration (Cmax), peak time (Tmax) and quantifiable end time were obtained directly from the blood drug concentration-time profile.
The following pharmacokinetic parameters were calculated using the log-linear trapezoid method: Plasma clearance rate (CL), volume of distribution (Vd), elimination phase half-life (T1/2), average residence time of drug in the body from 0 to the end time point (MRT0-last), average residence time of the drug in the body from 0 to infinite time (MRT0-inf), area under the time-plasma concentration curve from 0 to the end time point (AUC0_last), area under the time-plasma concentration curve from 0 to infinite time (AUC0-inf) and bioavailability (F).

CYP2D6 = CYP2D6 (Homo sapiens (Human), UniProt P10635); test: CYP inhibition in human liver microsomes, CYP2D6; format: in vitro ADME; conditions: 0.05-50 μM
Experimental: as §6, §7, §8, §9

[8] = Microsome metabolic stability, rat; format: in vitro ADME; conditions: rat liver microsomes, 1 μM compound, 0.5 mg/mL; read-out: MMS CLint(liver)-R
Experimental: as §1, §2, §3, §4, §5

CYP1A2 = CYP1A2 (Homo sapiens (Human), UniProt P05177); test: CYP inhibition in human liver microsomes, CYP1A2; format: in vitro ADME; conditions: 0.05-50 μM
Experimental: as §6, §7, §8, §9

[9] = 0.5 mg/kg, 0.5 mpk intravenous injection
[10] = 2.5 mg/kg, 2.5 mpk oral administration

Sequence of CYP2C9 (P11712 whole entry): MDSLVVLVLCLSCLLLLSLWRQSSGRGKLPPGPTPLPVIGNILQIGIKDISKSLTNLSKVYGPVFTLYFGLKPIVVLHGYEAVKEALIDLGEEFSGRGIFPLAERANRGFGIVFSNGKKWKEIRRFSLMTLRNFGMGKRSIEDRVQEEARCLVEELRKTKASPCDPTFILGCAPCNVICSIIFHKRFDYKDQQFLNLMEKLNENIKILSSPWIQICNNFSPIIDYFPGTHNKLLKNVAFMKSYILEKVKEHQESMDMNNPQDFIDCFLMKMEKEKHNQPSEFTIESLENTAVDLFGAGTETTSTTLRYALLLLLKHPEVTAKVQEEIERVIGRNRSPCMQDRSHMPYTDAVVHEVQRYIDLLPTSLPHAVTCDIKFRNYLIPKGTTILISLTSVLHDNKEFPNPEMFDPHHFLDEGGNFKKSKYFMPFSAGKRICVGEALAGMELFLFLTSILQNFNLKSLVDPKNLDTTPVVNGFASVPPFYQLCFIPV
Sequence of human wild-type RET kinase (P07949 29-1114): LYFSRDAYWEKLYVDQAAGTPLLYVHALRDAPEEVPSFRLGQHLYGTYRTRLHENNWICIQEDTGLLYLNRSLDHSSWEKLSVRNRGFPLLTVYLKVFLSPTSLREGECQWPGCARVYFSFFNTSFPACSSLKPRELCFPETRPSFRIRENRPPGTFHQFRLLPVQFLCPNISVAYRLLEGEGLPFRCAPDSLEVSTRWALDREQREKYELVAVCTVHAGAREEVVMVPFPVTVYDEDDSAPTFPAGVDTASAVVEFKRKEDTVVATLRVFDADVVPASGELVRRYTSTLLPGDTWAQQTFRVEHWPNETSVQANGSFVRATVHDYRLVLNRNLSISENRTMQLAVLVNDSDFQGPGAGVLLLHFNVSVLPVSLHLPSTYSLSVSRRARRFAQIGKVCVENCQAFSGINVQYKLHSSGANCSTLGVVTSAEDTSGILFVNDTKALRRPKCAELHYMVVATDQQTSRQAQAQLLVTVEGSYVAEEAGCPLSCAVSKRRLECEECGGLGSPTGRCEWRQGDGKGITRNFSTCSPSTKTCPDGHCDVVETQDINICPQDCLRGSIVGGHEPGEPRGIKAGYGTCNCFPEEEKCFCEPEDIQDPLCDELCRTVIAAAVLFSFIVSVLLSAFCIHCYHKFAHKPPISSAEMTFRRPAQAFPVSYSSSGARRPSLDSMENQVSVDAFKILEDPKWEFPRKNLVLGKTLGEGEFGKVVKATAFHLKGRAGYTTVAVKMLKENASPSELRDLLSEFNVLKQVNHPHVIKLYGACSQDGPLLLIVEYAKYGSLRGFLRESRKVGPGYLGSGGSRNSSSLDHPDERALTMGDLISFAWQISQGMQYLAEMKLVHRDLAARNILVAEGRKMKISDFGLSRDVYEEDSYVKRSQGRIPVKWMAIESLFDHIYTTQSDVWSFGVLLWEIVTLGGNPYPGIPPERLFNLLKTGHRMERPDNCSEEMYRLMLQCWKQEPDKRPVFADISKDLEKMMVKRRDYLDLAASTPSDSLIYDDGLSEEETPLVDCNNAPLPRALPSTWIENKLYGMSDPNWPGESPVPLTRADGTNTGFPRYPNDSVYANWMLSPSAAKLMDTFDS
Sequence of CYP2D6 (P10635 whole entry): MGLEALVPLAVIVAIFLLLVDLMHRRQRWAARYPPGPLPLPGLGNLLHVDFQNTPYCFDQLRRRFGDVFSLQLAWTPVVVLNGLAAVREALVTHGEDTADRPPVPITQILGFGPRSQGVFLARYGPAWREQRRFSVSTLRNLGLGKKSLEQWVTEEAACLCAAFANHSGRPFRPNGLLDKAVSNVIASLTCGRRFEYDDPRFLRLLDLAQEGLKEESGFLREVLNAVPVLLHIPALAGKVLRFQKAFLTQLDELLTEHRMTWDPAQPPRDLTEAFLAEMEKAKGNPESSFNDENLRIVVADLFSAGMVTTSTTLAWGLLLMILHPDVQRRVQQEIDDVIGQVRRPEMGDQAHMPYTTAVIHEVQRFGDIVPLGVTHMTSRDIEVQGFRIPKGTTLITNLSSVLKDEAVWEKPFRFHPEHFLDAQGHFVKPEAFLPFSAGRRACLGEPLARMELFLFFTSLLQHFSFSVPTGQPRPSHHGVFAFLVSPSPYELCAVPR
Sequence of CYP2C19 (P33261 whole entry): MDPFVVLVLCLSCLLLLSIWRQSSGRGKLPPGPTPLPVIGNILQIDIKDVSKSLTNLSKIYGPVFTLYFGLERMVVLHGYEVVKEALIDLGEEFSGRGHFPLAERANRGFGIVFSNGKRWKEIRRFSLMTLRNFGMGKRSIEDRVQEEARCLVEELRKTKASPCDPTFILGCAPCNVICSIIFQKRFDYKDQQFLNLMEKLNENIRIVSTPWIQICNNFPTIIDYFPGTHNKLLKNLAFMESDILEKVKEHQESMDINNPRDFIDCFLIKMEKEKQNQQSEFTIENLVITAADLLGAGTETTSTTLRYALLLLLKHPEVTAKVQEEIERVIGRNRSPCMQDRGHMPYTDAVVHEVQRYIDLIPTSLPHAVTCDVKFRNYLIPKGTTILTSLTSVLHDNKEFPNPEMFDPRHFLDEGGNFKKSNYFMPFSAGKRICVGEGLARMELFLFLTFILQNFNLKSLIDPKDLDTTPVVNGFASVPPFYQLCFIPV
Sequence of CYP1A2 (P05177 whole entry): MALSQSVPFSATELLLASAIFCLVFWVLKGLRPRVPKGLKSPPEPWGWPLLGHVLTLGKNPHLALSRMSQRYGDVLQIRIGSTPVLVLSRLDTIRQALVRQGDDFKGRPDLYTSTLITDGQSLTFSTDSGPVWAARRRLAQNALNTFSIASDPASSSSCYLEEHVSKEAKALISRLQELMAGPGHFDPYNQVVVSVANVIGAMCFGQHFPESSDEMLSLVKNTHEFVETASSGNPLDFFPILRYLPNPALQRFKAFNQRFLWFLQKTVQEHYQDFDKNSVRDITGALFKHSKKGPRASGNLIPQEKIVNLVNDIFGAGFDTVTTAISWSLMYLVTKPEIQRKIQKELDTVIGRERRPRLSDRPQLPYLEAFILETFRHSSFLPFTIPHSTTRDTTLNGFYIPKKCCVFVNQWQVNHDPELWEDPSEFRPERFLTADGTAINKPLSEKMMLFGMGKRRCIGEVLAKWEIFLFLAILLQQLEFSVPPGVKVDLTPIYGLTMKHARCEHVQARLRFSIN
Sequence of human V804M mutant RET kinase (P07949 29-1114 V804M): as the sequence (P07949 29-1114) above, with V776M counted along it
Sequence of CYP3A4 (P08684 whole entry): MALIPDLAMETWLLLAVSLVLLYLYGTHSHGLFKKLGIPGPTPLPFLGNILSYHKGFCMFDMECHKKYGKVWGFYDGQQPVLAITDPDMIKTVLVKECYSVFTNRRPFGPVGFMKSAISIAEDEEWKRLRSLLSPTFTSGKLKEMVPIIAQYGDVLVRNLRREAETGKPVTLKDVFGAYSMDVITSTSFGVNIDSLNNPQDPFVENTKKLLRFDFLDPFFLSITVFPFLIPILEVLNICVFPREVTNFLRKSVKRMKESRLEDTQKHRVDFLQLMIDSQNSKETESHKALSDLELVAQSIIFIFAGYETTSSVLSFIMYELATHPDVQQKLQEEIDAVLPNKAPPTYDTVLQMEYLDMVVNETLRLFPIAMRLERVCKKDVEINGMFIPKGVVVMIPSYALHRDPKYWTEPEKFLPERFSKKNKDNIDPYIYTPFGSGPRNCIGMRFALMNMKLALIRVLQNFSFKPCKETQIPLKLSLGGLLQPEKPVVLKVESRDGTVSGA

- CLint scaled at 1 μM [1]: 5.31 L/h/kg
- CLint scaled at 1 μM [2]: 1.24 L/h/kg
- IC50 (CYP3A4): > 50 µM
- CLint scaled at 1 μM [3]: 1.35 L/h/kg
- IC50 (CYP2C19): 16.9 µM
- IC50 [4]: 0.0009 µM
- IC50 (CYP2C9): 12.5 µM
- IC50 [5]: 0.0005 µM
- CLint scaled at 1 μM [6]: 7.6 L/h/kg
- AUC(0-inf) [7, 9]: 5.19 µM·h
- C0 [7, 9]: 1.3 µM
- clearance [7, 9]: 0.161 L/h/kg
- half-life [7, 9]: 6.93 h
- Vd ([7]; 0.5 mg/kg, 0.5 mpk intravenous injection, read-out: Vdss): 1.52 L/kg
- AUC(0-inf) [7, 10]: 12.5 µM·h
- Cmax [7, 10]: 0.958 µM
- Tmax [7, 10]: 8 h
- half-life [7, 10]: 5.16 h
- IC50 (CYP2D6): 18.8 µM
- CLint scaled at 1 μM [8]: < 1.04 L/h/kg
- IC50 (CYP1A2): > 50 µM
SMILES: CCN1CCN(Cc2cc(F)c(NC(=O)Cc3ccc(-c4cnc5cc(OC)c(OC)cc5c4)nc3)cc2C(F)(F)F)CC1 [Compound 1]

Source: patent publication US20230312504A1, “QUINOLINE COMPOUNDS” (Guangzhou Baiyunshan Pharmaceutical Holdings Co., Ltd. …, priority 2020, published 2023)
